Patent EP4427807A1, “N-BRIDGED DIAZOCINE ANALOGUES OF CARBAMAZEPINE TO CONTROL NEURONAL ACTIVITY WITH LIGHT AND APPLICATIONS THEREOF” (Fundació Institut de Bioenginyeria de Catalunya (IBEC), priority 2023, dated 2024)
Entries after “also recorded” stand apart in the source; their conditions may differ. Like-named read-outs stand apart in the source and are kept apart here.

Columns and labels:
[1] = Quantification of photostationary states (PSS) by HPLC at the isosbestic point; type: physicochemical; conditions: for ratio between the two isomers: cis (Z) / ratio between the two isomers: trans (E): HPLC
Experimental: High-performance Liquid Chromatography (HPLC) analysis were performed with a Waters Alliance e2695 Separation Module paired with a Waters 2998 UV/vis Photodiode Array Detector (Diode array 190-800 nm) and a Waters AQUITY QDa Mass Detector (positive ionization ESI+). Samples were injected on a XSelect CSH C18 […] 4.6x50 mm analytical column with the following mobile phases, respectively called line A and B: water with formic acid 0.1% (v/v) and acetonitrile with formic acid 0.1% (v/v). The injections were eluted with the following method: flow 1.6 mL/min, gradient 0.00-4.50 min, 5-100% B; 4.50-5.00 min, 100-5% B.
(§1) The photochromic response was characterized by the absorption spectra after irradiation with LEDs at λ = 365 nm, 380 nm, 420 nm, 460 nm, 500 nm. The maximal changes in the spectra were associated to the optimal λ to isomerize from Z to E and vice versa. Resistance to photofatigue was tested by cycles of illuminations between the optimal λ. The kinetics of the spontaneous relaxation in the dark (time course of absorption at a fixed λ) was measured to quantify the relaxation lifetime by fitting the plots to an exponential decay curve. The UV-vis absorption analysis for the photochromic characterization has been carried out at room temperature. Stock solutions were prepared in the concentration of 10 mM in DMSO. The solutions used for the measurements were obtained by diluting the stock solutions in PBS at the desired final concentration (in the range of 30 µM and 50 µM). Finally, the photostationary states (PSS) were quantified using HPLC at the λ corresponding to the isosbestic point.
The quantification of photostationary states (PSS) has been measured by HPLC analysis. The peaks at the Diode Array have been detected and integrated at the wavelength corresponding to the isosbestic point.

[2] = Photochemical characterization by UV-vis absorption (photoisomerization, thermal relaxation in the dark, photofatigue); type: physicochemical
Excerpt: All reagents and solvents were purchased from Sigma-Aldrich and Cymit Quimica S.L. and were used without any further purification. Reactions were monitored by analytical thin layer chromatography (TLC) on commercial silica gel 60 F254 aluminum foils 20 x 20 cm (Merck). Spots were visualized under 254 or 365 nm UV lamp and/or with the use of an appropriate stain (ninidrine solution, Dragendorff reagent, alkaline potassium permanganate solution or phosphomolybdic acid solution 5% in ethanol). Compounds were purified by flash chromatography on PanReac Applichem silica gel 60 (40-63 µm) as stationary phase; the mobile phases are specified for each compound. All the UV/vis spectra and experiments were registered with Shimadzu UV-1800 UV-VIS spectrophotometer using quartz cuvettes (10 mm light path).
as §1, with “The” for “The photochromic response was characterized by the absorption spectra after irradiation with LEDs at λ = 365 nm, 380 nm, 420 nm, 460 nm, 500 nm. The”

[3] = system: primary hippocampal neurons; assay: Current clamp recording of action potential firing in cultured primary hippocampal neurons; type: cell-based, Sprague-Dawley rat; conditions: Rattus norvegicus, Hippocampal neuron
Experimental: Procedures were performed in accordance with the European guidelines for animal care and use in research and were approved by the Animal Experimentation Ethics Committee at the University of Barcelona. Sprague-Dawley rat pups (P 1-5) were sacrificed by decapitation, hippocampi were isolated and treated with 0.1% trypsin in HBSS (10 min, 37°C). Neurons were plated on Poly-D-Lysine (PDL)-coated 16 mm coverslips (0.5-1 x 10^5 cells) and incubated at 37°C, 5% CO2 for 1,5 hours (to allow cells adhesion) in MEM supplemented with heat-inactivated FBS (5%), heat-inactivated HS (5%), penstrep (10 Ul/ml), L-glutamine (2mM) and glucose (20mM). Cells were cultured in Neurobasal A medium, supplemented with B-27 (5%), penstrep (5 Ul/ml), glutaMAX (0,5x) and glucose (15mM). On DIV 3 cultured cells were treated with 1 µM of Ara-C to prevent proliferation of non-neuronal cells. 50% of the maintenance medium was exchanged every 4 days.
Whole-cell recordings were performed at room temperature using an EPC-10 amplifier (HEKA Elektronik, Germany) and Patch Master software (HEKA). […] Firing of primary hippocampal neurons was recorded in current clamp configuration. […]
Data was analyzed using Igor Pro 6.05 (WaveMatrics, USA) and Origin 8.0 (OriginLab, USA) software. […] Statistical difference between groups was evaluated with Mann-Whitney test and was considered significant at the value of P below 0.05.

[4] = system: zebrafish (Danio rerio) larvae; assay: Behavioural study (swimming activity) in zebrafish larvae under light cycles; type: in vivo
Experimental: Wild-type zebrafish embryos (Tupfel long-fin strain) were purchased from the animal facility of the Barcelona Biomedical Research Park (PRBB) and raised in darkness for 7 days at 28 °C in UV filtered tap water in Petri dishes (daily cleaned and refilled). Animal development was checked every 24 hours. Unhealthy or abnormal embryos and larvae were removed and euthanatized in tricaine methanosulfonate (400 mg/l). All experiments and procedures were conducted according to the European Directive 2010/63/EU.
Behavioral studies were conducted on wild-type zebrafish larvae at 7 days post-fertilization (dpf). Vehicle and compounds were added with a multichannel pipette to exclude differences related to a delay in the application of each solution. Movements were recorded and analyzed using the ZebraBox tracking system and the ZebraLab software (ViewPoint Life Science, France). On the morning of the test, 7-dpf larvae were moved into a new batch of fresh water and checked for motility capabilities and possible physical mutations. Larvae were then randomly divided into control and treatment groups. Each individual was placed in a separate well of a 96-well plate, each containing 200 µl of fresh UV filtered water and left undisturbed in the dark for 30 min to get acquainted with the new setting (habituation time). Afterwards, 100 µL of water were removed from each well and replaced with 100 µl of a double concentrated vehicle or treatment solution. At this point, the plate was inserted into the ZebraBox and the recording period started. Animals were exposed to controlled cycles of dark, 380 nm, 420 nm, 500 nm wavelengths or with a halogen lamp (warm white light), using the illumination protocols represented by coloured-shaded areas in their respective graphs (see figures). Illumination at 380, 420 and 500 nm was performed with a built-in array of 12 LEDs placed 12 cm away from the multiwell plate. The halogen lamp used was the Volpi Intralux 4000 (115 W). Light intensities, measured with a Newport 1916-C optical power meter coupled to a Newport 918D-SL-OD3R detector, were 0.21 mW·cm^-2 (380 nm), 2.43 mW·cm^-2 (420 nm) and 0.69 mW·cm^-2 (500 nm). All experiments were conducted between 12.00 and 15.00 pm (UTC+01:00).
Alterations of locomotor activity were determined by monitoring and measuring fast movements, swimming distances and duration of high-speed swimming. In particular, the dependent variables measured included: total distance travelled, distance travelled at ≤ 2 mm·s^-1, distance travelled at 2-6 mm·s^-1, distance travelled at ≥ 6 mm·s^-1, time spent moving, time spent freezing, and number of bursts. The arbitrary cut-off for motility (6 mm·s^-1) was chosen because no variance was found among the groups at lower speeds. Figures show distances travelled over 6 mm·s^-1 and total movements (addition of movements below cut-off high speed swimming) were not considered to limit the error of the video recording on minimal movements. Data were analysed by two-way ANOVA with Tukey's post-hoc test for statistical significance (GraphPad Prism 6).

[5] = after irradiation at 400 nm for 3 minutes, 374 nm
[6] = after irradiation at 500 nm for 3 minutes, 374 nm
[7] = benchtop dark condition, isosbestic wavelength 374 nm

NC(=O)N1Cc2ccccc2/N=N\c2ccccc21 [compound of formula (II), (Z)-dibenzo[c,g][1,2,5]triazocine-11(12H)-carboxamide]
ratio between the two isomers: cis (Z) [1, 5]: 49% | ratio between the two isomers: trans (E) [1, 5]: 51% | ratio between the two isomers: cis (Z) [1, 6]: ≥ 99% | ratio between the two isomers: trans (E) [1, 6]: not detected | ratio between the two isomers: cis (Z) [1, 7]: ≥ 99% | ratio between the two isomers: trans (E) [1, 7]: not detected | isomer present in the dark ([1]; in the dark, at benchtop conditions): fully converted into the Z inactive isomer | E to Z back-isomerization ([1]; irradiation at ≥ 500 nm): full back-isomerization to the Z inactive form | E to Z isomerization ([2]; 90 W EPV halogen lamp (600-700 nm), after one minute irradiation): full conversion | E to Z isomerization ([2]; 590 nm LED, over 1 h irradiation): quantitative conversion to the Z isomer | half-life for relaxation in the dark t1/2 ([2]; dark conditions, PBS 0.01M, 25°C): 3.2 h | resistance to several cycles of illumination (photofatigue) ([2]; several cycles of illumination): without degradation or loss in photochromic properties; also recorded: without loss in absorption or degradation | activity at 30 µM ([3]; spontaneously firing neurons, without blue light (Fig 2B: 500 nm), P > 0.05, mean ± SD, read-out: frequency of the action potentials generation, % from control): 72 ± 5% | activity at 30 µM ([3]; under blue light (400 nm) illumination, P < 0.01, n=4, mean ± SD, read-out: frequency of the action potentials generation (firing), % from control): 28 ± 13% | distance swum ([4]; 1 µM, after the third illumination with blue light (420 nm)): significant increase of the distance swum | swimming distances ([4]; 10 µM, average of all green (500 nm) periods): slightly increased | swimming activity ([4]; 10 µM, under blue light (420 nm)): increasing the activity of the larvae | swimming activity ([4]; 10 µM, under green illumination (500 nm)): returning to control levels | swimming activity ([4]; 50 µM, first blue light (420 nm) illumination periods, effect reduced with consecutive blue illumination): significantly hyperactive | signs of toxicity or distress in the larvae ([4]; 1-50 µM, 7 dpf zebrafish larvae): No signs of toxicity or distress | swimming distances ([4]; all concentrations (1, 10, 50 µM), green light (500 nm), each period compared individually to control): did not alter significantly the swimming distances | effect on swimming behaviour in the dark ([4]; first 20 minutes of the experiment, full darkness, 7 dpf larvae): no effects | hyperactivity of treated larvae ([4]; illumination with warm white light (halogen lamp), all treated groups): blocked the hyperactivity
